Data from US12421212B2, “Substituted benzenecarboxamides as IL-17A modulators” (DiCE Alpha, Inc., priority 2019, dated 2025).

Biological target: T1, IL-17A/A (Homo sapiens, UniProt Q16552)
T1 construct: purchased Genscript Z03228
T1 sequence (Q16552 24-155): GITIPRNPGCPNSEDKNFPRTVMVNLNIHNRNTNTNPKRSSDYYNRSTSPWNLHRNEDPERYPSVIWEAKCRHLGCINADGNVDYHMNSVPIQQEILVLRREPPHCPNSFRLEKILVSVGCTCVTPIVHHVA
Assay: IL-17A/A HEK-Blue Cell Assay
Format: cell-based
Settings: HEK-Blue IL-17A reporter cell line, SEAP readout at A630, 20 hours incubation with IL-17A/A; top concentration 10 uM, 1 uM or 0.3 uM

SMILES	IL-17A/A inhibition (pIC50)
CCC(=O)N[C@H](Cc1ccc(NC(=O)[C@@H](NC(=O)Cc2ccc(OC)nc2)C2CCCCC2)c(F)c1)C(=O)N1CCN(C)CC1 [Compound 711]	X2a (compounds were evaluated up to 1 uM and did not inhibit activity by >80%, however they showed some activity at 1 uM (less than 80% and more than 20%))
CCC(=O)N[C@H](Cc1ccc(NC(=O)[C@@H](NC(=O)C(F)(F)c2ccncc2)C2CCCCC2)c(F)c1)C(=O)N1CCN(C)CC1 [Compound 712]	X2a (compounds were evaluated up to 1 uM and did not inhibit activity by >80%, however they showed some activity at 1 uM (less than 80% and more than 20%))
CCC(=O)N[C@H](Cc1ccc(NC(=O)[C@@H](NC(=O)C(F)(F)c2ccc(=O)n(C)c2)C2CCCCC2)c(F)c1)C(=O)N1CCN(C)CC1 [Compound 713]	X2b (compounds were evaluated up to 1 uM and inhibited activity at 1 uM by less than 20%)
CCC(=O)N[C@H](Cc1ccc(NC(=O)[C@@H](NC(=O)C(F)(F)C2(O)CCCC2)C2CCCCC2)c(F)c1)C(=O)N1CCN(C)CC1 [Compound 715]	X2b (compounds were evaluated up to 1 uM and inhibited activity at 1 uM by less than 20%)
CCC(=O)N[C@H](Cc1ccc(NC(=O)[C@@H](NC(=O)c2cnc(CNS(C)(=O)=O)n2C)C2CCCCC2)c(F)c1)C(=O)N1CCN(C)CC1 [Compound 716]	X2b (compounds were evaluated up to 1 uM and inhibited activity at 1 uM by less than 20%)
CCC(=O)N[C@H](Cc1ccc(NC(=O)[C@@H](NC(=O)c2cnc(CNC(C)=O)n2C)C2CCCCC2)c(F)c1)C(=O)N1CCN(C)CC1 [Compound 717]	X2b (compounds were evaluated up to 1 uM and inhibited activity at 1 uM by less than 20%)
CCC(=O)N[C@H](Cc1ccc(NC(=O)[C@@H](NC(=O)c2ccc(S(=O)(=O)NC)s2)C2CCCCC2)c(F)c1)C(=O)N1CCN(C)CC1 [Compound 718]	X2a (compounds were evaluated up to 1 uM and did not inhibit activity by >80%, however they showed some activity at 1 uM (less than 80% and more than 20%))
CCC(=O)N[C@H](Cc1ccc(NC(=O)[C@H](Cc2ccc(Cl)cc2)NC(=O)c2ccnn2CC)c(F)c1)C(=O)N1CCN(C)CC1 [Compound 722]	X2b (compounds were evaluated up to 1 uM and inhibited activity at 1 uM by less than 20%)
CCC(=O)N[C@H](Cc1ccc(NC(=O)[C@H](Cc2ccc(C(F)(F)F)cc2)NC(=O)c2ccnn2CC)c(F)c1)C(=O)N1CCN(C)CC1 [Compound 723]	X2b (compounds were evaluated up to 1 uM and inhibited activity at 1 uM by less than 20%)
CCC(=O)N[C@H](Cc1ccc(NC(=O)[C@H](Cc2ccc3ccccc3c2)NC(=O)c2ccnn2CC)c(F)c1)C(=O)N1CCN(C)CC1 [Compound 724]	X2b (compounds were evaluated up to 1 uM and inhibited activity at 1 uM by less than 20%)
CCC(=O)N[C@H](Cc1ccc(NC(=O)[C@H](Cc2ccccc2F)NC(=O)c2ccnn2CC)c(F)c1)C(=O)N1CCN(C)CC1 [Compound 725]	X2b (compounds were evaluated up to 1 uM and inhibited activity at 1 uM by less than 20%)
CCC(=O)N[C@H](Cc1ccc(NC(=O)[C@H](Cc2cccc(Cl)c2)NC(=O)c2ccnn2CC)c(F)c1)C(=O)N1CCN(C)CC1 [Compound 726]	X2b (compounds were evaluated up to 1 uM and inhibited activity at 1 uM by less than 20%)
CCC(=O)N[C@H](Cc1ccc(NC(=O)[C@H](Cc2cc(C)cc(C)c2)NC(=O)c2ccnn2CC)c(F)c1)C(=O)N1CCN(C)CC1 [Compound 727]	X2b (compounds were evaluated up to 1 uM and inhibited activity at 1 uM by less than 20%)
CCC(=O)N[C@H](Cc1ccc(NC(=O)[C@@H](NC(=O)c2ccnn2CC)C2Cc3ccccc3C2)c(F)c1)C(=O)N1CCN(C)CC1 [Compound 728]	X2a (compounds were evaluated up to 1 uM and did not inhibit activity by >80%, however they showed some activity at 1 uM (less than 80% and more than 20%))
CCC(=O)N[C@H](Cc1ccc(NC(=O)[C@H](CCC2CCCCC2)NC(=O)c2ccnn2CC)c(F)c1)C(=O)N1CCN(C)CC1 [Compound 729]	X2b (compounds were evaluated up to 1 uM and inhibited activity at 1 uM by less than 20%)
CCC(=O)N[C@H](Cc1ccc(NC(=O)[C@H](CC2CCCCC2)NC(=O)c2ccnn2CC)c(F)c1)C(=O)N1CCN(C)CC1 [Compound 730]	X2b (compounds were evaluated up to 1 uM and inhibited activity at 1 uM by less than 20%)
CCC(=O)N[C@H](Cc1ccc(NC(=O)[C@H](Cc2ccccc2Cl)NC(=O)C(F)(F)c2ccc(OC)nc2)c(F)c1)C(=O)N1CCN(C)CC1 [Compound 731]	X2b (compounds were evaluated up to 1 uM and inhibited activity at 1 uM by less than 20%)
CCC(=O)N[C@H](Cc1ccc(NC(=O)[C@@H](NC(=O)c2ccnn2CC)[C@H]2CC[C@H](C(F)(F)F)CC2)c(F)c1)C(=O)N1CCN(C)CC1 [Compound 732]	X2a (compounds were evaluated up to 1 uM and did not inhibit activity by >80%, however they showed some activity at 1 uM (less than 80% and more than 20%))
CCC(=O)N[C@@H](C(=O)N1CCN(C)CC1)[C@@H](C)c1ccc(NC(=O)[C@@H](NC(=O)C(F)(F)C2CCNCC2)C2CCCCC2)c(F)c1 [Compound 733]	X2b (compounds were evaluated up to 1 uM and inhibited activity at 1 uM by less than 20%)
CCC(=O)N[C@@H](C(=O)N1CCN(C)CC1)[C@@H](C)c1ccc(NC(=O)[C@@H](NC(=O)C(F)(F)C2CCN(C)CC2)C2CCCCC2)c(F)c1 [Compound 734]	X2a (compounds were evaluated up to 1 uM and did not inhibit activity by >80%, however they showed some activity at 1 uM (less than 80% and more than 20%))
CCC(=O)N[C@@H](C(=O)N1CCN(C)CC1)[C@@H](C)c1ccc(NC(=O)[C@@H](NC(=O)C(F)(F)C2CCN(CCO)CC2)C2CCCCC2)c(F)c1 [Compound 735]	X2a (compounds were evaluated up to 1 uM and did not inhibit activity by >80%, however they showed some activity at 1 uM (less than 80% and more than 20%))
CCC(=O)N[C@@H](C(=O)N1CCN(C)CC1)[C@@H](C)c1ccc(NC(=O)[C@@H](NC(=O)c2ccnn2-c2ccccc2)C2CCCCC2)c(F)c1 [Compound 738]	X2a (compounds were evaluated up to 1 uM and did not inhibit activity by >80%, however they showed some activity at 1 uM (less than 80% and more than 20%))
CCC(=O)N[C@@H](C(=O)N1CCN(C)CC1)[C@@H](C)c1ccc(NC(=O)[C@@H](NC(=O)CC2CCNCC2)C2CCCCC2)c(F)c1 [Compound 741]	X2b (compounds were evaluated up to 1 uM and inhibited activity at 1 uM by less than 20%)
CCC(=O)N[C@@H](C(=O)N1CCN(C)CC1)[C@@H](C)c1ccc(NC(=O)[C@H](Cc2ccccc2Cl)NC(=O)c2ccnn2CC)c(F)c1 [Compound 742]	X2a (compounds were evaluated up to 1 uM and did not inhibit activity by >80%, however they showed some activity at 1 uM (less than 80% and more than 20%))
CCn1nccc1C(=O)N[C@H](C(=O)Nc1ccc([C@H](C)[C@@H](NC(=O)c2ccn(C)n2)C(=O)N2CCN(C)CC2)cc1F)C1CCCCC1 [Compound 744]	X2a (compounds were evaluated up to 1 uM and did not inhibit activity by >80%, however they showed some activity at 1 uM (less than 80% and more than 20%))
